Measurements reported in patent US9476053B2, “Methods and compositions for inhibition of immune responses and autoimmunity” (Dynavax Technologies Corporation, priority 2007, dated 2016).
Where two headings read alike, the source gives them in different places.

Legend:
TLR9 = biological target: T1, TLR9 (Homo sapiens, UniProt Q9NR96); assay: TLR9 dependent cell responses (statement in description); type: cell-based
T1 sequence (Q9NR96 26-1032): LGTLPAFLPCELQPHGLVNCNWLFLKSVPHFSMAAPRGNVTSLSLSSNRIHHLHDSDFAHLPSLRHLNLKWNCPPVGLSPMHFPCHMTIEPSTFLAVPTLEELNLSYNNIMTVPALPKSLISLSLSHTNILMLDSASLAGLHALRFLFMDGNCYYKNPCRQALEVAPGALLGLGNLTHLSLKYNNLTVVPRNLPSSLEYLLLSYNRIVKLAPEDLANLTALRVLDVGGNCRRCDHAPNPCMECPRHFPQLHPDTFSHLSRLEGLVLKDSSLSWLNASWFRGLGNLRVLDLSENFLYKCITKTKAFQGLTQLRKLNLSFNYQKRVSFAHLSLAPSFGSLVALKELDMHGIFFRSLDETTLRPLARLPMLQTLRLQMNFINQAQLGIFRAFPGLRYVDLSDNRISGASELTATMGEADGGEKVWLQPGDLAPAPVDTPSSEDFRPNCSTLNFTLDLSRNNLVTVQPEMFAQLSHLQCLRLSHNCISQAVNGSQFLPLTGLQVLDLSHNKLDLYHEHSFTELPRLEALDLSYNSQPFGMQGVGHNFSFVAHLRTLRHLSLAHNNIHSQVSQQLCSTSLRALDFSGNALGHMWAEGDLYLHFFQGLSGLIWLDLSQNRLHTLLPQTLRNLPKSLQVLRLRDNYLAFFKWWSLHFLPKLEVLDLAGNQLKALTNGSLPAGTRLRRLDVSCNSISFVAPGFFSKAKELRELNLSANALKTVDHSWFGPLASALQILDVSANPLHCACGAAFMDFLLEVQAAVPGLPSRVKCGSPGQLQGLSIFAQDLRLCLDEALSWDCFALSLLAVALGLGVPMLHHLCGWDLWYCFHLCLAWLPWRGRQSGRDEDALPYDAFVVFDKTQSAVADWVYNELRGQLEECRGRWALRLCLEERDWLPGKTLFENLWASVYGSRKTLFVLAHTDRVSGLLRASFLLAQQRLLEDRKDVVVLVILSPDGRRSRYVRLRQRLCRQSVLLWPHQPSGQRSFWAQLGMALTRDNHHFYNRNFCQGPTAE

TLR7 [1] = biological target: T2, TLR7 (Homo sapiens, UniProt Q9NYK1); assay: TLR7 dependent cell responses (statement in description); type: cell-based
T2 sequence (Q9NYK1 27-1049): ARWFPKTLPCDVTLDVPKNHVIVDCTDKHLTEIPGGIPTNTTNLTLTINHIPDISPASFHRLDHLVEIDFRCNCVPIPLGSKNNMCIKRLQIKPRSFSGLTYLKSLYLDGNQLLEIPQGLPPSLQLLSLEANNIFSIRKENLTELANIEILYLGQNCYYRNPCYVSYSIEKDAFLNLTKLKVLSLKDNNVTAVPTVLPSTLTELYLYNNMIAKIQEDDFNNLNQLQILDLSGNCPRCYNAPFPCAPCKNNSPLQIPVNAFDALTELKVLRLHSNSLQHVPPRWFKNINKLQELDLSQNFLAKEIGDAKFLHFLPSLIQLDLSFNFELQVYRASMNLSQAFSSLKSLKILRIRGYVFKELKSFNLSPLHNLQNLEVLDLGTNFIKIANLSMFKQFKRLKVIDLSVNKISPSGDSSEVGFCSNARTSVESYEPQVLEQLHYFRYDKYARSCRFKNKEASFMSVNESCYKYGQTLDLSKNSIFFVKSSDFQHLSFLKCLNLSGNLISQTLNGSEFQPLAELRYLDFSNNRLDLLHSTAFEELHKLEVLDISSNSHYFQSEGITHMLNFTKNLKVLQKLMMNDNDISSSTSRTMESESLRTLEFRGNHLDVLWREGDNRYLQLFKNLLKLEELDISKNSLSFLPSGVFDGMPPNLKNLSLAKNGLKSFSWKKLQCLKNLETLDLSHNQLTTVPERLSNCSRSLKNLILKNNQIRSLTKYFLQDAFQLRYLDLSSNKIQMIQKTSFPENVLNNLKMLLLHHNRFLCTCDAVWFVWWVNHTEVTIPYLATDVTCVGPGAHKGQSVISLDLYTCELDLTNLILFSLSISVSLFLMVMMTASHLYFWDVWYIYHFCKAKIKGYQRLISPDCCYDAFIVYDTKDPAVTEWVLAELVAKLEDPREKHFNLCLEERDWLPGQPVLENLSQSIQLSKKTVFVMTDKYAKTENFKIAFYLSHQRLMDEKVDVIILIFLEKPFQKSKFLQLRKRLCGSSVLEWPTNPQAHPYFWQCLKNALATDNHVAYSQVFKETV

TLR7 [2] = biological target: T3, TLR7 (Mus musculus, UniProt P58681); assay: Mouse splenocytes stimulated with R848 (TLR7 ligand), IL-6 by immunoassay; type: cell-based
T3 construct: The dispersed splenocytes were pelleted by centrifugation, then resuspended in fresh medium; endogenous in cells; host or cells: primary splenocytes of BALB/c mice
T3 sequence (P58681 27-1050): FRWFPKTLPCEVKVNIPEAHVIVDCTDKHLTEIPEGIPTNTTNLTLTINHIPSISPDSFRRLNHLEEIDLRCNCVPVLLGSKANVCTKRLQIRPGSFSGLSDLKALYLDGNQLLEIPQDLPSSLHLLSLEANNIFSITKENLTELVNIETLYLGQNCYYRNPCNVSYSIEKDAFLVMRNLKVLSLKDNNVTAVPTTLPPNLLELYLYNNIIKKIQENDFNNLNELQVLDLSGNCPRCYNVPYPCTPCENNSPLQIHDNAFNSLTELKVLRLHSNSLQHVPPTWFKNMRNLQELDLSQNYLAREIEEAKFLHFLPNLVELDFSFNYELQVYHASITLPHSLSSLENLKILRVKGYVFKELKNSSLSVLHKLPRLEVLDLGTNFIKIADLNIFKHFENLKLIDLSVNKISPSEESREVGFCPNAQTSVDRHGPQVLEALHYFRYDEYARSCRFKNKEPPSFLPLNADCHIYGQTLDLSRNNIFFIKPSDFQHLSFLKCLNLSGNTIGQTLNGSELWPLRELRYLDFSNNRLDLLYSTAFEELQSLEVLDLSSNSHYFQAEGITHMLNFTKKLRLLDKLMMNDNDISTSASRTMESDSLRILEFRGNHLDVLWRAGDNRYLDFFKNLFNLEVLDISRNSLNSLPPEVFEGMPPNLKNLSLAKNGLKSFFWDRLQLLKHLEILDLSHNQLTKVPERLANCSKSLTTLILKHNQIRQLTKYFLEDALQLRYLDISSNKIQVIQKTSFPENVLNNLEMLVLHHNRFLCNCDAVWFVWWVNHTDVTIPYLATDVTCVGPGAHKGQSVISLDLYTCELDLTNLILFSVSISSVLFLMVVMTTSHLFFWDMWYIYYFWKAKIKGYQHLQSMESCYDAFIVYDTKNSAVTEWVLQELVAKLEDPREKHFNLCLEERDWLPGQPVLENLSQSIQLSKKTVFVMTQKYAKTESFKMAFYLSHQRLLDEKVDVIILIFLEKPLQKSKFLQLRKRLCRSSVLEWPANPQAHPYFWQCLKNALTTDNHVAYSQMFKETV
Experimental: Modified and unmodified immunoregulatory polynucleotides (IRPs) (i.e., polynucleotides containing at least one modified or unmodified IRS) or control samples were assayed for immunoregulatory (IR) activity of innate immune responses on human and mouse cells.
For mouse cell assays, spleens from 6-12 week-old BALB/c mice spleen were harvested and mechanically dispersed by forcing the digested fragments through metal screens. The dispersed splenocytes were pelleted by centrifugation, then resuspended in fresh medium (RPMI 1640 with 10% fetal calf serum, plus 50 units/mL penicillin, 50 μg/mL streptomycin, 2 mM glutamine, and 0.05 mM β-mercaptoethanol). In a dose-dependent manner, the cells were then stimulated with […] of 1018 ISS (TLR9 ligand; 5′-[…]-3′ (SEQ ID NO:122)) or 1 μM of R848 (TLR7 ligand; a small molecule, an imidazoquinoline also called resiquimod) either alone or in the presence of the tested IRPs. At 48 hours, supernatants were collected and cytokine levels, IL-6, were measured using immunoassays. […]

[3] = Solubility of spacer measured as dialcohol precursor; type: physicochemical; conditions: dodecyl spacer measured as dialcohol precursor
Experimental: Thus, the definition of spacers excludes microcarriers or nanocarriers. In addition, a spacer moiety that has low solubility, such as a dodecyl spacer (solubility <5 mg/ml when measured as dialcohol precursor 1,12-dihydroxydodecane) is not preferred because it can reduce the hydrophilicity and activity of the IRC. Preferably, spacer moieties have solubility much greater than 5 mg/ml (e.g., 20 mg/ml, ≦50 mg/ml or 100 mg/ml) when measured as dialcohol precursors.

[4] = system: plasmacytoid dendritic cells (PDCs); type: cell-based, human; conditions: read-out: concentration of hydroxycortisone necessary to achieve 50% death of PDCs

Row | Compound | TLR9 dependent cell responses (TLR9) | TLR7 dependent cell responses (TLR7 [1]) | also measured
1 | 5′-TCCTGGAGGGGTTGT-3′ (chemistry not given here) [SEQ ID NO:17] | greater inhibitory activity |  | 
2 | 5′-TGCTTGCAAGCTAGCAAGCA-3′ (chemistry not given here) [SEQ ID NO:33] |  | inhibits | 
3 | 5′-TGCTTGCAAGCTAGCAAGCA-HEG-TCCTGGAGGGGTTGT-3′ (TGCTTGCAAGCTAGCAAGCATCCTGGAGGGGTTGT; Two nucleotide segments joined by a hexaethylene glycol (HEG) spacer, nucleotide chemistry not given here) [SEQ ID NO:68] | very active in inhibiting | very active in inhibiting | 
4 | 5′-TGCTTGCAAGCTTGCAAGCA-3′ (chemistry not given here) [SEQ ID NO:27] |  | inhibits | 
5 | 5′-TGCTTGCAAGCTTGCTAGCA-3′ (chemistry not given here) [SEQ ID NO:34] | The same is also true | The same is also true | 
6 | 5′-TGCTTGCAAGCTTGCTAGCA-HEG-TCCTGGAGGGGTTGT-3′ (TGCTTGCAAGCTTGCTAGCATCCTGGAGGGGTTGT; Two nucleotide segments joined by a hexaethylene glycol (HEG) spacer, nucleotide chemistry not given here) [SEQ ID NO:69] | The same is also true | The same is also true | 
7 | 5′-UGC UCC UGG AGG GGU UGU-3′ (DNA UGCUCCUGGAGGGGUUGU; all 2'-O-methyl, backbone not given here) [SEQ ID NO:135, all nucleotides modified with a 2′-O-Me modification] |  |  | IL-6 levels compared to unmodified SEQ ID NO:123 (TLR7 [2]): significant decrease
8 | OCCCCCCCCCCCCO [1,12-dihydroxydodecane] |  |  | solubility [3]: < 5000 µg/mL
9 | C[C@]12CCC(=O)C=C1CC[C@@H]1[C@@H]2[C@@H](O)C[C@@]2(C)[C@H]1CC[C@]2(O)C(=O)CO [hydroxycortisone, reference compound] |  |  | EC50 ([4]; in the presence of CpG-C ISS C274): 2 µM; EC50 ([4]; in the presence of HSV (HSV-1 KOS strain)): 0.15 µM; EC50 ([4]; in the presence of HSV and SEQ ID NO:123): 0.004 µM; EC50 ([4]; in the presence of influenza virus and SEQ ID NO:123): 0.022 µM; EC50 ([4]; in the presence of influenza virus): 4.5 µM; EC50 ([4]; in the presence of the ISS and SEQ ID NO:123): 0.085 µM
